The test system of one data set is SBC-5 cells. The data set is described as follows: 10-day proliferation assay, negative control cells lacking BRG1 and BRM. The conditions noted are these: Homo sapiens, SBC-5, 240 h, read-out: mean IC50, cell proliferation.
Another data set addresses CYP2C19 (Homo sapiens, UniProt P33261). The data set can be described thus: CYP enzyme inhibition in pooled human liver microsomes, CYP2C19. The conditions noted are these: for inhibition at 30 µM: human, microsomes, Enzyme activity (% inhibition), CYP2C19, probe S-Mephenytoin.
Another data set concerns the target CHD4 enzyme (Homo sapiens, UniProt Q14839). The data set can be described thus: ADP-Glo ATPase assay, CHD4. It counts as biochemical. The conditions noted are these: concentrations up to 200 μM (n=3). (ADP-Glo first removes unused ATP, then detects ADP through luciferase.)
A further data set has as its target CYP3A4 (Homo sapiens, UniProt P08684). The data set is described as follows: Depletion by recombinant CYP enzyme, CYP3A4. It counts as in vitro ADME. The conditions noted are these: recombinant 3A4.
A further data set deals with T1, BCRP (Homo sapiens, UniProt Q9UNQ0).
T1 construct: expressed in transfected cells; host or cells: MDCK-II
T1 sequence (Q9UNQ0 1-655): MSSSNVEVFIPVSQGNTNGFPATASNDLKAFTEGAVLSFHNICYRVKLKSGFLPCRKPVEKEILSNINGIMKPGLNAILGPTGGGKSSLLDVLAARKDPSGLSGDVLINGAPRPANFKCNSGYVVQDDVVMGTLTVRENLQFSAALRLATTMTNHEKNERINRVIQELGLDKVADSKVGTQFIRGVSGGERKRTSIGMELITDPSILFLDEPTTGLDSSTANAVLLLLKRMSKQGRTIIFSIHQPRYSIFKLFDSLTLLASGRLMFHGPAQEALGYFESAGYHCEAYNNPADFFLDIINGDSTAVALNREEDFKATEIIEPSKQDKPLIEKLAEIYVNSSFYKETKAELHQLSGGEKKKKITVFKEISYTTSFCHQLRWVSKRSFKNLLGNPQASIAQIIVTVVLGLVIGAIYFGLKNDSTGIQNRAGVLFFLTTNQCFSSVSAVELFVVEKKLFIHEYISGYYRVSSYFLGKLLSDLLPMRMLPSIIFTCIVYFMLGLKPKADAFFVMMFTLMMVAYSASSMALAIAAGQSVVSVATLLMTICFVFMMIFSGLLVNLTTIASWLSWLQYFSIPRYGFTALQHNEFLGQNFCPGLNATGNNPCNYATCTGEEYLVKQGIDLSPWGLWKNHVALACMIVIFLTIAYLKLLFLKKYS
The data set is described as follows: Bidirectional transport in MDCK-II cells expressing BCRP. The data set is classed as in vitro ADME.

The target in the next data set is T2, CYP2B6 (Homo sapiens, UniProt P20813).
T2 sequence (P20813 1-491): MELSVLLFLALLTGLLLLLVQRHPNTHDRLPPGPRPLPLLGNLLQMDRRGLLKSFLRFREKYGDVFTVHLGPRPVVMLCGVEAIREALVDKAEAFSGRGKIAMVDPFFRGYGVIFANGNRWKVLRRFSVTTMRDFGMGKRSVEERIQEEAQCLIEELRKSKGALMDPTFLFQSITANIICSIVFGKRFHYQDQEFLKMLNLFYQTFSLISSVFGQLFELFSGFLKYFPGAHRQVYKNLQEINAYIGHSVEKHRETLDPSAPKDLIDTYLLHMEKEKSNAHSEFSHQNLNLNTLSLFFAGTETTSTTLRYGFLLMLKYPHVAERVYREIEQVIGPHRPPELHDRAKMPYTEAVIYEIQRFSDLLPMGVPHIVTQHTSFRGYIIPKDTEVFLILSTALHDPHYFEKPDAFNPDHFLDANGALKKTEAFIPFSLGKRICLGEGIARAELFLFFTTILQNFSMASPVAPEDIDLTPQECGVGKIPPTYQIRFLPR
The data set can be described thus: Depletion by recombinant CYP enzyme, CYP2B6. On the set-up: from tissue; host or cells: pooled human liver microsomes. It counts as in vitro ADME. The conditions noted are these: recombinant 2B6; 0.1 μM.

A further data set addresses T3, CYP1A2 (Homo sapiens, UniProt P05177).
T3 sequence (P05177 1-516): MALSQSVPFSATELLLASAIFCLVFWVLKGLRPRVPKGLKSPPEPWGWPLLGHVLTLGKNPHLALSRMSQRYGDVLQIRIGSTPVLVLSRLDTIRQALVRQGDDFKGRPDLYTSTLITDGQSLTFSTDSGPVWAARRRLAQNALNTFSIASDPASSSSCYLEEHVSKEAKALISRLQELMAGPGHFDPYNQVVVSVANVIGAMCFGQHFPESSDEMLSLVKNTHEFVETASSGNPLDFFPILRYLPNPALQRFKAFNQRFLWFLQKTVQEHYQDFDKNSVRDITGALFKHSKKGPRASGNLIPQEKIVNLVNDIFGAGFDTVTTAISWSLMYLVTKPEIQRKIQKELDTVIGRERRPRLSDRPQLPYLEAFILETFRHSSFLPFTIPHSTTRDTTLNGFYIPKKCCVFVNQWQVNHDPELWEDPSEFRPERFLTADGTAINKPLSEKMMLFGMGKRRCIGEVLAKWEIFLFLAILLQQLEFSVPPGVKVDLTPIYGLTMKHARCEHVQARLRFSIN
The data set can be described thus: CYP enzyme inhibition in pooled human liver microsomes, CYP1A2. The conditions noted are these: for inhibition at 30 µM: human, microsomes, Enzyme activity (% inhibition), CYP1A2, probe Phenacetin. (In general: Liver microsomes are vesicles of endoplasmic reticulum, rich in cytochrome P450 enzymes.)

Another data set has as its system CYP2b1 mRNA. The data set can be described thus: CYP mRNA expression in cultured rat hepatocytes, CYP2b1. The conditions noted are these: 0.3 to 100 nM. It counts as in vitro ADME.
Setting [1] is: PHLM, concentrations up to 30 μM.
The mark [2] stands for this setting: 30 Minutes Pre-incubation with NADPH, PHLM.
Where [3] appears, read: 30 Minutes Pre-incubation without NADPH, PHLM.
[4] abbreviates: human, read-out: Papp A→B, in transporter cells.
Where [5] appears, read: human, read-out: Papp B→A, in transporter cells.

pIC50: −log10 of the molar value.

CYP2C19, sequence (P33261 whole entry): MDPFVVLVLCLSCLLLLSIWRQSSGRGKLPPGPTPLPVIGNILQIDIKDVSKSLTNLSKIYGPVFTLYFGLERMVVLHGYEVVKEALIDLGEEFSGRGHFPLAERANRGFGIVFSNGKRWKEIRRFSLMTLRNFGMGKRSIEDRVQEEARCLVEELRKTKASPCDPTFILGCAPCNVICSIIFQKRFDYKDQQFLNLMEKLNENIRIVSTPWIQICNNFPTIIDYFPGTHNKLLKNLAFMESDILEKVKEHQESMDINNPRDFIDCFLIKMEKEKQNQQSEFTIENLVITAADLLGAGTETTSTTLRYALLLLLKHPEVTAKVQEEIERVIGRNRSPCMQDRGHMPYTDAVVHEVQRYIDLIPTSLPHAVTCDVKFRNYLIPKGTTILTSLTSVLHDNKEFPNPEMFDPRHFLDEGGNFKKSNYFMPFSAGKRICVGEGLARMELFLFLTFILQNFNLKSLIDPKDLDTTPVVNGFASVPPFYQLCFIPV
CYP3A4, sequence (P08684 whole entry): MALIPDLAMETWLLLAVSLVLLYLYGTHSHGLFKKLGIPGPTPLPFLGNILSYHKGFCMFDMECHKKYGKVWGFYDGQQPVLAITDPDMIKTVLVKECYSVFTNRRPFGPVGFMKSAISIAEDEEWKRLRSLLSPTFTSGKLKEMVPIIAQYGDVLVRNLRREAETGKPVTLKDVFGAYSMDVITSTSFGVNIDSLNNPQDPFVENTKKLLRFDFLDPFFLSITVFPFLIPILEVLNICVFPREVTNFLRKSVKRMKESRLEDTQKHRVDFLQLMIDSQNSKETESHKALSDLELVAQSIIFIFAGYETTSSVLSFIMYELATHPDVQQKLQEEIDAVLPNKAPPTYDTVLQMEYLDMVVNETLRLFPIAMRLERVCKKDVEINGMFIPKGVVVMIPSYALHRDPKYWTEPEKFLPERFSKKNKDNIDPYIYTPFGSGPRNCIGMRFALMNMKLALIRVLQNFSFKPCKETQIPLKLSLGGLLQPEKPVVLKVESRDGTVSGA
CHD4 enzyme, sequence (Q14839 whole entry, species assumed): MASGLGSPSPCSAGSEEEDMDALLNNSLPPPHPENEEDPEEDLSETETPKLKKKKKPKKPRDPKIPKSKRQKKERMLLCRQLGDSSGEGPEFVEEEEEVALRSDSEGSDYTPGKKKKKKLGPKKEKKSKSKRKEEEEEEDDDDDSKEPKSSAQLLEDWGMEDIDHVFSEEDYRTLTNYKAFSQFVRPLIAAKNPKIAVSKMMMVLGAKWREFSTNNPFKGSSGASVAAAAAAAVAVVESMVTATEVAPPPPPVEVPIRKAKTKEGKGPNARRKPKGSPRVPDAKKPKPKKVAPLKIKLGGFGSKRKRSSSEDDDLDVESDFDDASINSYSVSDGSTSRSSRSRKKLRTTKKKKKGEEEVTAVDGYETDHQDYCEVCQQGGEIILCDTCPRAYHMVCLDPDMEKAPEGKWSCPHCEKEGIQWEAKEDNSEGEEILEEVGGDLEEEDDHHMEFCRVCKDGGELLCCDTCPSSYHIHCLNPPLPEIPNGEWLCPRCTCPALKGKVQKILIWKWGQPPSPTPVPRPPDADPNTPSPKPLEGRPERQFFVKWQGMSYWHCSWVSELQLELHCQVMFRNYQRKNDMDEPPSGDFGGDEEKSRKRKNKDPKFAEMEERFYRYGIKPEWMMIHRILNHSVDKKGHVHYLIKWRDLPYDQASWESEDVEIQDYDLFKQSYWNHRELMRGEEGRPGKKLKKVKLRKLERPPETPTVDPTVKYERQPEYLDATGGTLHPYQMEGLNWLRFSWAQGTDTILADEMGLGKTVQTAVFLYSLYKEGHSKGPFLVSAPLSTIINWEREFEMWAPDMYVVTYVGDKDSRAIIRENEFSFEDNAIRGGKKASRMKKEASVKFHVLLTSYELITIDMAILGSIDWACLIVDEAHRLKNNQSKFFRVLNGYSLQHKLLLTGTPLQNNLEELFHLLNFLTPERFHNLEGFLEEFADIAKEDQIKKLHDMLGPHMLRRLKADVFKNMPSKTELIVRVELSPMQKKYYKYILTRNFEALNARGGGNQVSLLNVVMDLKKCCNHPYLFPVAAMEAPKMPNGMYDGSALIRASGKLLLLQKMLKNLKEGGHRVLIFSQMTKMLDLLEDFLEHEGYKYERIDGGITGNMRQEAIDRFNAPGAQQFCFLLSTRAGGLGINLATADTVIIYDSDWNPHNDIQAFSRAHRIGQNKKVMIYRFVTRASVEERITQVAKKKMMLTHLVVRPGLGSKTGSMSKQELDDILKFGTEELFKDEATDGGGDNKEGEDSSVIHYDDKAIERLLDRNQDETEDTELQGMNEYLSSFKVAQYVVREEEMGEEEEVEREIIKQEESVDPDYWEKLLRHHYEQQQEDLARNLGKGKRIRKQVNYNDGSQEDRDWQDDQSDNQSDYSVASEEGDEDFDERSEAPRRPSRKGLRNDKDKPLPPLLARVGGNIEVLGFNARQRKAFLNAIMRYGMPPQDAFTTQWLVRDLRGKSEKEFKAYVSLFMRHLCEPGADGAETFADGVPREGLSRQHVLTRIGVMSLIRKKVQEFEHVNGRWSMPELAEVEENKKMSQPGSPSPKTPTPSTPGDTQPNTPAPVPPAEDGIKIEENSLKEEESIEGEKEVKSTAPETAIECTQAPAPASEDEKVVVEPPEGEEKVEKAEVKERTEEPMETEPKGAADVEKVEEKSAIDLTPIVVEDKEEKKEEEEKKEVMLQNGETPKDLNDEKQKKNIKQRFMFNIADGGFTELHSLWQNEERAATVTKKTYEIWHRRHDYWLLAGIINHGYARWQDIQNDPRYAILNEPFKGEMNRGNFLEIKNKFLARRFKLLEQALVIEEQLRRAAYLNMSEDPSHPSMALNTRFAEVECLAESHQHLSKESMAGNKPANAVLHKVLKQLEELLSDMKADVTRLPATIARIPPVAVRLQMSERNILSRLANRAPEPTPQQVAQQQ

As for `COC[C@H](NC(=O)c1ccn(S(C)(=O)=O)c1)C(=O)Nc1nc(-c2cccc(N3C[C@@H](C)O[C@@H](C)C3)n2)cs1` [compound of formula (I), N-((S)-1-((4-(6-(cis-2,6-dimethylmorpholino)pyridin-2-yl)thiazol-2-yl)amino)-3-methoxy-1-oxopropan-2-yl)-1-(methylsulfonyl)-1H-pyrrole-3-carboxamide], the pIC50 with SBC-5 cells was less than 4.60; against CYP2C19 it was less than 4.52; against CYP1A2, less than 4.52. For the same compound, the “direct inhibitory activity (% inhibition) toward CYP2C19” value at CYP2C19 (setting [1]) is recorded as less than 50%. Further, the inhibition (usually the relative decrease from the control value, in per cent) at 30 µM came out at 28.1% against CYP2C19 (setting [2]); 21.4% against CYP2C19 (setting [3]); 23.1% against CYP2C19 (No Pre-incubation, PHLM); 11.8% on CYP1A2 (setting [2]); 8.5% against CYP1A2 (setting [3]); 11.4% against CYP1A2 (No Pre-incubation, PHLM). The “inhibition of the ATPase activity of the CHD4 enzyme” value against CHD4 enzyme was “did not inhibit”. In addition, the “% Remaining of Compound of Formula (I)” value at CYP3A4 (0.1 μM) is 0.0%; on CYP3A4 (1 μM) it was 1.2%; at CYP2B6, 85.3%. For the same compound, on BCRP (MDCK-II cells expressing BCRP), the BCRP substrate status result was “substrate”. Further, the Papp A→B – broadly, how fast a substance crosses the layer from the apical side – at 1 μM at BCRP (setting [4]) is 6.15 ×10⁻⁶ cm/s. For the same compound, the Papp A→B at 10 μM at BCRP (setting [4]) was 16.5 ×10⁻⁶ cm/s. The apical-to-basolateral permeability (Papp A→B) at 50 μM on BCRP (setting [4]) was 22.4 ×10⁻⁶ cm/s. On BCRP (setting [5]), the Papp B→A (as a rule, how fast a substance crosses the layer from the basolateral side) at 1 μM worked out at 24.3 ×10⁻⁶ cm/s. For the same compound, at BCRP (setting [5]), the Papp B→A at 10 μM is 25.2 ×10⁻⁶ cm/s. For the same compound, the Papp B→A at 50 μM on BCRP (setting [5]) came out at 18.5 ×10⁻⁶ cm/s. Moreover, on CYP1A2 (setting [1]), the “direct inhibitory activity (% inhibition) toward CYP1A2” value was less than 50%. Besides, in the data set with CYP2b1 mRNA, the “concentrations at which CYP2b1 mRNA expression was decreased ≥50%” value is reported as no less than 10 nM.

The record behind these values is patent US20240189318A1, “THERAPEUTIC REGIMENS OF AN INHIBITOR OF THE ENZYMATIC ACTIVITY OF BRG1 AND BRM” (FOGHORN THERAPEUTICS INC., priority 2021, published 2024).
